The text below walks through data of patent US7994127B2, “Treatment of rett syndrome” (Massachusetts Institute of Technology, priority 2007, dated 2011).

For data set [1] the following is noted: in vivo; cited from earlier work.
In data set [2] the test system is visual cortex of adult MeCP2+/− mice. The experiment in a line: Ocular dominance plasticity after monocular deprivation, optical imaging of intrinsic signals. The conditions noted are these: 180 μg/kg/day i.p. starting at 2 weeks; P60 MeCP2 KO mice. It is filed as in vivo, mouse.
Data set [3] concerns synaptic transmission. Description: Synaptic transmission during direct application of the molecules. It is filed as cell-based, mouse. The settings on record: direct application of the molecule. From the text:
rhIGF1 produced a similar improvement as (1-3)IGF-1 in all maturational signatures measured, including (A) synaptic transmission levels, and (B) circuit stability (by preventing ocular dominance plasticity) in P60 MeCP2 KO mice.
The above data focused on the (1-3)IGF-1 fragment of IGF1 to promote IGF1 signaling. We also have tested the effect of the full-length IGF1 peptide already approved for pediatric administration in human patients (for short stature indications). We have verified a correspondence in the effects of (1-3)IGF-1 and recombinant human IGF1 (rhIGF1).

The test system of data set [4] is rat hippocampal cultures. The conditions noted are these: Ramsey et al., 2005; Xing et al., 2007; cited from earlier work.

For “rhIGF1: full-length IGF1 peptide already approved for pediatric administration in human patients; recombinant human IGF1”, the “crossing the blood-brain barrier” value in data set [1] is listed as “capable of crossing the blood-brain barrier”. For the same molecule, the “maturation of cortical circuitry during ocular dominance plasticity (FIG. 9B)” value in data set [2] was “promoted to similar degrees”. Besides, in data set [3], the “synaptic activity / synaptic transmission levels (FIG. 9A)” value is reported as “striking enhancements of synaptic activity”. For the same molecule, the excitatory postsynaptic currents entry in data set [4] is “elevate excitatory postsynaptic currents significantly”.

B1: BDNF: brain derived neurotrophic factor (protein, UniProt P23560 19-247, looked up)
Neurotrophic factor BDNF …: APMKEANIRGQGGLAYPGVRTHGTLESVNGPKAGSRGLTSLADTFEHVIEELLDEDQKVRPNEENNKDADLYTSRVMLSSQVPLEPPLLFLLEEYKNYLDAANMSMRVRRHSDPARRGELSVCDSISEWVTAADKKTAVDMSGGTVTVLEKVPVSKGQLKQYFYETKCNPMGYTKEGCRGIDKRHWNSQCRTTQSYVRALTMDSKKRIGWRFIRIDTSCVCTLTIKRGR
B1: the “crossing the blood-brain barrier” value in data set [1] was “poor efficiency at crossing the blood brain barrier”.
